According to patent publication US9315539B2 (YALE UNIVERSITY, priority 2002, dated 2016):
Entries after “also recorded” stand apart in the source; their conditions may differ.

Tests used:
Ishikawa cell [1] = assay: Agonist/antagonist character of the analogs (Tables 1 and 2); format: cell-based; settings: estrogen agonism or antagonism, assay not named in the tables
Source text: From the estrogen competition assay, we expected that the methyl and ethyl esters, E11-2,1 and E11-2,2 would have relatively high activity in the estrogen potency assay, induction of alkaline phosphatase in Ishikawa cells. However, the results were quite unexpected (see FIG. 5, attached). […] We had never previously seen this disparity between estrogen receptor binding and biological activity. It occurred to us that we were observing the results that would obtained with a SERM and that E11-2,2 was in fact an antiestrogen. Consequently, we repeated the Ishikawa assay as an antiestrogenic assay (the assay is run in the presence of specified amounts of estradiol). […] We continued our synthesis of various analogs in order to define the chemical characteristics that lead to antiestrogenic effects. […] In this regard, several compounds are described with a 17α-ethynyl group in order to protect the C-17 hydroxyl from biological oxidation.

Ishikawa cells = assay: Ishikawa estrogenic potency assay, induction of alkaline phosphatase; format: cell-based; settings: for estrogenic activity (in words): induction of alkaline phosphatase in Ishikawa cells; for relative stimulatory activity (RSA): induction of alkaline phosphatase, estradiol set at 100%
Source text: (§1) Ishikawa Estrogenic Potency Assay From the estrogen competition assay, we expected that the methyl and ethyl esters, E11-2,1 and E11-2,2 would have relatively high activity in the estrogen potency assay, induction of alkaline phosphatase in Ishikawa cells. However, the results were quite unexpected (see FIG. 5, attached). […] We had never previously seen this disparity between estrogen receptor binding and biological activity. It occurred to us that we were observing the results that would obtained with a SERM and that E11-2,2 was in fact an antiestrogen. Consequently, we repeated the Ishikawa assay as an antiestrogenic assay (the assay is run in the presence of specified amounts of estradiol).

Ishikawa cell [2] = assay: Antiestrogen Ishikawa cell assay (run in the presence of estradiol); format: cell-based; settings: for antiestrogenic activity (in words): inhibition of estradiol-stimulated alkaline phosphatase
Source text: as §1, with “From” for “Ishikawa Estrogenic Potency Assay From”

estrogen receptor = target: T1, estrogen receptor (Homo sapiens, UniProt P03372); assay: Estrogen receptor competition assay (relative binding affinity); settings: estradiol (E2) = 100%
T1 sequence (P03372 1-595): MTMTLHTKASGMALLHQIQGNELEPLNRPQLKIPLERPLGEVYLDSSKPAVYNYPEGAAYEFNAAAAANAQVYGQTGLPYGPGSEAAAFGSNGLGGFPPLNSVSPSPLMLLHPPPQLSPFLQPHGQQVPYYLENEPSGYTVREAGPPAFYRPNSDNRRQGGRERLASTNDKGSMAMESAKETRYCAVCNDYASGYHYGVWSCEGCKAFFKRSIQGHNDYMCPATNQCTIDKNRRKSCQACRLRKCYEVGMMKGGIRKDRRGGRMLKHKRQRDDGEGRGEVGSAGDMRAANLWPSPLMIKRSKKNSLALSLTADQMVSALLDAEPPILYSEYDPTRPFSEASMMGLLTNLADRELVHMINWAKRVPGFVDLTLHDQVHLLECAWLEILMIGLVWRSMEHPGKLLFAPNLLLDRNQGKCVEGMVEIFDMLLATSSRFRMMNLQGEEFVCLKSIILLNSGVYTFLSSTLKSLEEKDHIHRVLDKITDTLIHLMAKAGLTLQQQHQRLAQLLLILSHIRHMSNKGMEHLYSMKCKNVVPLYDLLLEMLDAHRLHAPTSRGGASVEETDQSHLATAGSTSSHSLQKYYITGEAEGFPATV

[3] = tested on: uterotrophic action of estradiol; assay: In vivo uterotrophic assay, antiestrogenic action; design: species or system rat; settings: immature female rats; for effect on uterotrophic action of estradiol: 20 ng estradiol
Description: In Vivo Uterotropic Activity
The analogs were administered concurrently in the same oil.

Row | Compound | agonist / antagonist character (Ishikawa cell [1]) | also measured
1 | C#CC1(O)CCC2C3CCc4cc(O)ccc4C3C(CCCOC(C)C)CC21C (stereo not drawn) [17α-ethynyl-E11-3,iPr ether] | very strong antagonist | 
2 | C#CC1(O)CCC2C3CCc4cc(O)ccc4C3C(CCCOC(C)(C)C)CC21C (stereo not drawn) [17α-ethynyl-E11-3,tBu ether] | very strong antagonist | 
3 | CC(=O)OC[C@H]1C[C@]2(C)[C@@H](O)CC[C@H]2[C@@H]2CCc3cc(O)ccc3[C@@H]12 [E11-1,2Rev] | agonist | 
4 | CCOCC1CC2(C)C(O)CCC2C2CCc3cc(O)ccc3C12 (centres unmarked) [E11-1,2ether] | agonist | 
5 | CCCOCC1CC2(C)C(O)CCC2C2CCc3cc(O)ccc3C12 (centres unmarked) [E11-1,3ether] | strong antagonist | 
6 | C[C@]12C[C@H](CC(=O)O)[C@@H]3c4ccc(O)cc4CC[C@H]3[C@@H]1CC[C@@H]2O [E11-2,0] |  | estrogenic activity (in words) (Ishikawa cells): more active than E11-2,2; antiestrogenic activity (in words) (Ishikawa cell [2]): neither E11-2,1 nor E11-2,0 showed any antiestrogenic activity; relative binding affinity (RBA) (estrogen receptor): 0.3%
7 | COC(=O)C[C@H]1C[C@]2(C)[C@@H](O)CC[C@H]2[C@@H]2CCc3cc(O)ccc3[C@@H]12 [E11-2,1] | estrogen | relative stimulatory activity (RSA) (Ishikawa cells): 16%; antiestrogenic activity (in words) (Ishikawa cell [2]): neither E11-2,1 nor E11-2,0 showed any antiestrogenic activity; relative binding affinity (RBA) (estrogen receptor): 24%
8 | COCCC1CC2(C)C(O)CCC2C2CCc3cc(O)ccc3C12 (centres unmarked) [E11-2,1ether] | agonist/slight antagonist | 
9 | CC(=O)OCC[C@H]1C[C@]2(C)[C@@H](O)CC[C@H]2[C@@H]2CCc3cc(O)ccc3[C@@H]12 [E11-2,2Rev] | agonist | 
10 | CCOC(=O)C[C@H]1C[C@]2(C)[C@@H](O)CC[C@H]2[C@@H]2CCc3cc(O)ccc3[C@@H]12 [E11-2,2] | antiestrogen; also recorded: strong antagonist | effect on uterotrophic action of estradiol ([3]; 3 μg analog): partially active; effect on uterotrophic action of estradiol ([3]; 10 μg analog): completely abolished the effect of 20 ng estradiol; effect on uterotrophic action of estradiol (uterine weight) ([3]; 100 μg analog, 50 ng estradiol, FIG. 7): inhibiting the action of 50 ng of estradiol; estrogenic activity (in words) (Ishikawa cells): almost inactive; antiestrogenic activity (in words) (Ishikawa cell [2]): inhibited the estrogenic stimulation of alkaline phosphatase in the Ishikawa cell, with very high potency; Ki (Ishikawa cell [2]; inhibition of estrogenic stimulation of alkaline phosphatase, several assays): 1 to 2 nM; relative binding affinity (RBA) (estrogen receptor): 45%
11 | CCOCCC1CC2(C)C(O)CCC2C2CCc3cc(O)ccc3C12 (centres unmarked) [E11-2,2ether] | strong antagonist | inhibition of the effect of estradiol ([3]; 30 μg analog): about 50%
12 | CCCOC(=O)C[C@H]1C[C@]2(C)[C@@H](O)CC[C@H]2[C@@H]2CCc3cc(O)ccc3[C@@H]12 [E11-2,3] | strong antagonist | 
13 | CCCOCCC1CC2(C)C(O)CCC2C2CCc3cc(O)ccc3C12 (centres unmarked) [E11-2,3ether] | strong antagonist | 
14 | CC(C)OC(=O)C[C@H]1C[C@]2(C)[C@@H](O)CC[C@H]2[C@@H]2CCc3cc(O)ccc3[C@@H]12 [E11-2,3i] | strong antagonist | 
15 | CCCCOC(=O)C[C@H]1C[C@]2(C)[C@@H](O)CC[C@H]2[C@@H]2CCc3cc(O)ccc3[C@@H]12 [E11-2,4] | strong antagonist | 
16 | CC(C)(C)COC(=O)C[C@H]1C[C@]2(C)[C@@H](O)CC[C@H]2[C@@H]2CCc3cc(O)ccc3[C@@H]12 [E11-2,5neo] | antagonist | 

Row | Compound | agonist / antagonist character (Ishikawa cell [1]) | also measured
17 | C[C@]12C[C@H](CCOC3CCCC3)[C@@H]3c4ccc(O)cc4CC[C@H]3[C@@H]1CC[C@@H]2O [E11-2,cyclo-Pent ether] | extremely strong antagonists; also recorded: very strong antagonist | 
18 | C[C@]12C[C@H](CCOC3CC3)[C@@H]3c4ccc(O)cc4CC[C@H]3[C@@H]1CC[C@@H]2O [E11-2,cyclo-Pr ether] | strong antagonist | 
19 | CC(C)OCCC1CC2(C)C(O)CCC2C2CCc3cc(O)ccc3C12 (centres unmarked) [E11-2,iPr ether] | strong antagonist | 
20 | CC(C)(C)OCCC1CC2(C)C(O)CCC2C2CCc3cc(O)ccc3C12 (centres unmarked) [E11-2,tBu ether] | very weak antagonist | 
21 | CCC(=O)C[C@H]1C[C@]2(C)[C@@H](O)CC[C@H]2[C@@H]2CCc3cc(O)ccc3[C@@H]12 [E11-2K2] | weak agonist | 
22 | CCCC(=O)C[C@H]1C[C@]2(C)[C@@H](O)CC[C@H]2[C@@H]2CCc3cc(O)ccc3[C@@H]12 [E11-2K3] | antagonist | effect on uterotrophic response of estradiol ([3]; 30 μg analog): completely abolished the uterotrophic response of estradiol
23 | CCOC(=S)C[C@H]1C[C@]2(C)[C@@H](O)CC[C@H]2[C@@H]2CCc3cc(O)ccc3[C@@H]12 [E11-2S2] | antagonist | agonist / antagonist character (Ishikawa cell [1]; listed as E11-2S,2): strong antagonist
24 | COCCCC1CC2(C)C(O)CCC2C2CCc3cc(O)ccc3C12 (centres unmarked) [E11-3,1 ether] | antagonist | 
25 | COC(=O)CC[C@H]1C[C@]2(C)[C@@H](O)CC[C@H]2[C@@H]2CCc3cc(O)ccc3[C@@H]12 [E11-3,1] | antagonist | 
26 | CCOCCCC1CC2(C)C(O)CCC2C2CCc3cc(O)ccc3C12 (centres unmarked) [E11-3,2 ether] | strong antagonist | 
27 | CC12CC(CCCOCCF)C3c4ccc(O)cc4CCC3C1CCC2O (centres unmarked) [E11-3,2F1 ether] | strong antagonist | 
28 | CC(=O)OCCC[C@H]1C[C@]2(C)[C@@H](O)CC[C@H]2[C@@H]2CCc3cc(O)ccc3[C@@H]12 [E11-3,2Rev] | antagonist | 
29 | CC(C)OCCCC1CC2(C)C(O)CCC2C2CCc3cc(O)ccc3C12 (centres unmarked) [E11-3,iPr ether] | strong antagonist | 
30 | CC(C)(C)C(=O)OCCC[C@H]1C[C@]2(C)[C@@H](O)CC[C@H]2[C@@H]2CCc3cc(O)ccc3[C@@H]12 [E11-3,piv Rev] | antagonist | 
31 | CC(C)(C)OCCCC1CC2(C)C(O)CCC2C2CCc3cc(O)ccc3C12 (centres unmarked) [E11-3,tBu ether] | extremely strong antagonists; also recorded: very strong antagonist | 
32 | C[C@]12CC[C@@H]3c4ccc(O)cc4CC[C@H]3[C@@H]1CCC2=O [estrone, reference compound] |  | relative stimulatory activity (RSA) (Ishikawa cells): 4%
